From patent US20250171413A1, “ANTIVIRAL INDOLINYL COMPOUNDS AND USES THEREOF” (Gilead Sciences, Inc., priority 2023, published 2025)
Read-outs that look alike come from different tables or passages of the source.

System: HSV-2 virus (MS strain)
Assay: HSV-2 Cellomics Assay (immunofluorescence of HSV protein gD)
Format: cell-based
Conditions: Human alphaherpesvirus 2, HSV-2 (MS strain, MOI 0.06) infected ARPE-19 cells, 16 hours
Experimental: Compounds were tested for their ability to inhibit HSV-2 replication by monitoring the expression of the HSV protein gD using a high-throughput immunofluorescence-based assay. 10-dose, 3-fold serial dilutions of compounds were prepared at starting concentrations of 0.2 or 2 mM in 100% DMSO. 250 nl of compounds were spotted in quadruplicates onto black collagen-coated 384-well microplates with clear bottom (Greiner cat #781956) using a Labcyte ECHO acoustic dispenser. The final starting concentration in the assay was either […]. DMSO (no compound) and pritelivir were included on each microplate as negative and positive controls, respectively.
ARPE-19 cells (ATCC cat #CRL-2302) were maintained DMEM/F-12 Glutamax medium (Thermo Fisher Scientific cat #10565018) supplemented with 10% FBS (Corning cat #35-011-CV) and 1% Penicillin-Streptomycin (cat #30-002-CI). Prior to confluence, cells were transferred to a centrifuge tube and spun for 5 minutes at 1000 rpm. Cells were resuspended in assay medium (DMEM/F-12 Glutamax, 2% FBS, 1% Penicillin-Streptomycin) and counted. Cell density was adjusted to 150,000 cells/ml and infected with HSV-2 virus (MS strain, ATCC cat #VR-540) at a MOI of 0.06 in a 50 ml conical tube for 1 hour under constant rocking. Cells were then spun for 5 minutes at 1000 rpm and the media replaced with assay medium containing either 2% FBS or 10% human serum (EMD Millipore cat #S1-100ML). 50 μl of the infection suspension were added into microplate wells that were pre-spotted with compounds (7,500 cells per well). Plates were incubated for 16 hours at 37° C.
Cell culture medium was aspirated using a Biomek Fx and 50 μl of a paraformaldehyde solution (Electron Microscopy Sciences cat #15712-5) diluted to 4% in DPBS (Corning cat #21-031-CM) were added per well. After a 30-minute incubation at room temperature, plates were washed 4 times with 100 μl/well of PBS using a Biotek plate washer. A 1:500 solution of primary antibody (anti-HSV gD, Virusys cat #P1103) was prepared in permeabilization buffer (Invitrogen cat #00-8333-56) and 50 μl were added into wells. After a 1-hour incubation at room temperature, 50 μl of a 1:1000 solution of secondary antibody (Alexa Fluor 488 goat anti-mouse, Thermo Fisher Scientific cat #A11001) and DAPI (Thermo Fisher Scientific cat #62248) in permeabilization buffer were added into wells and plates were incubated in the dark at room temperature for 1 hour. Plates were washed 4 times again and 50 μl of DPBS were added to all wells prior to sealing the plates with a black adhesive seal. Fluorescence was measured on a Cellomics plate reader.
Data analysis was carried out using the Thermo Scientific HCS Studio software. Briefly, cells were identified using the DAPI nuclear stain and thresholds were set to filter cells out based on shape and size. A second threshold based on green fluorescence intensity (detection of HSV-2 gD) was set to identify HSV-2 infected cells. Data was reported as the average fluorescence intensity of HSV-2 infected cells. EC50 values were defined as the compound concentration that caused a 50% decrease in the average fluorescence intensity and was calculated using a sigmoidal dose-response model to generate curve fits.

[1] = assay medium containing 2% FBS, read-out: EC50-HSV2-FBS
[2] = assay medium containing 10% human serum, read-out: EC50-HSV2-10% Human Serum

Compound	EC50 [1] [nM]	EC50 [2] [nM]
CC[S@](=N)(=O)c1cc2c(cc1F)CCN2C(=O)[C@H]1Cc2cc(-c3ccccn3)ccc2O1 [Example 5, (S)-ethyl(5-fluoro-1-((R)-5-(pyridin-2-yl)-2,3-dihydrobenzofuran-2-carbonyl)indolin-6-yl)(imino)-λ^6-sulfanone]	178	474
CC[S@@](=N)(=O)c1cc2c(cc1F)CCN2C(=O)[C@H]1Cc2cc(-c3ccccn3)ccc2O1 [Example 6, (R)-ethyl(5-fluoro-1-((R)-5-(pyridin-2-yl)-2,3-dihydrobenzofuran-2-carbonyl)indolin-6-yl)(imino)-λ^6-sulfanone]	40	81
CCC[S@@](=N)(=O)c1cc2c(cc1F)CCN2C(=O)[C@@H]1Cc2ccc(-c3ccccn3)cc2C1 [Example 8, (R)-(5-fluoro-1-((R)-5-(pyridin-2-yl)-2,3-dihydro-1H-indene-2-carbonyl)indolin-6-yl)(imino)(propyl)-λ^6-sulfanone]	16	77
CCC[S@](=N)(=O)c1cc2c(cc1F)CCN2C(=O)[C@H]1Cc2cc(-c3ccccn3)ccc2O1 [Example 11, (S)-(5-fluoro-1-((R)-5-(pyridin-2-yl)-2,3-dihydrobenzofuran-2-carbonyl)indolin-6-yl)(imino)(propyl)-λ^6-sulfanone]	124	406
N=S(=O)(c1cc2c(cc1F)CCN2C(=O)[C@@H]1Cc2ccc(-c3ccccn3)cc2C1)C1CC1 (stereo partly drawn) [Example 19, cyclopropyl(5-fluoro-1-((R)-5-(pyridin-2-yl)-2,3-dihydro-1H-indene-2-carbonyl)indolin-6-yl)(imino)-λ^6-sulfanone]	56	453
N=[S@](=O)(c1cc2c(cc1F)CCN2C(=O)[C@@H]1Cc2ccc(-c3ccccn3)cc2C1)C1CC1 [Example 20, (R)-cyclopropyl(5-fluoro-1-((R)-5-(pyridin-2-yl)-2,3-dihydro-1H-indene-2-carbonyl)indolin-6-yl)(imino)-λ^6-sulfanone]	33	248
N=[S@@](=O)(c1cc2c(cc1F)CCN2C(=O)[C@@H]1Cc2ccc(-c3ccccn3)cc2C1)C1CC1 [Example 21, (S)-cyclopropyl(5-fluoro-1-((R)-5-(pyridin-2-yl)-2,3-dihydro-1H-indene-2-carbonyl)indolin-6-yl)(imino)-λ^6-sulfanone]	98	949
CN=S(C)(=O)c1cc2c(cc1F)CCN2C(=O)[C@@H]1Cc2ccc(-c3ccccn3)cc2C1 (stereo partly drawn) [Example 22, (5-fluoro-1-((R)-5-(pyridin-2-yl)-2,3-dihydro-1H-indene-2-carbonyl)indolin-6-yl)(methyl)(methylimino)-l6-sulfanone]	211	737
CCS(=N)(=O)c1cc2c(cc1F)CC(C)N2C(=O)[C@@H]1Cc2ccc(-c3ccccn3)cc2C1 (stereo partly drawn) [Example 25, ethyl(5-fluoro-2-methyl-1-((R)-5-(pyridin-2-yl)-2,3-dihydro-1H-indene-2-carbonyl)indolin-6-yl)(imino)-λ^6-sulfanone]	72	203
CC[S@@](=N)(=O)c1cc2c(cc1F)C[C@@H](C)N2C(=O)[C@@H]1Cc2ccc(-c3ccccn3)cc2C1 [Example 26, (R)-ethyl((R)-5-fluoro-2-methyl-1-((R)-5-(pyridin-2-yl)-2,3-dihydro-1H-indene-2-carbonyl)indolin-6-yl)(imino)-λ^6-sulfanone]	30	92

Next, values leading:

EC50 [1] [nM]	EC50 [2] [nM]	Compound
18	71	CC[S@@](=N)(=O)c1cc2c(cc1F)CCN2C(=O)[C@@H]1Cc2ccc(-c3ccccn3)cc2C1 [Example 2, (R)-ethyl(5-fluoro-1-((R)-5-(pyridin-2-yl)-2,3-dihydro-1H-indene-2-carbonyl)indolin-6-yl)(imino)-λ^6-sulfanone]
73	258	CC[S@](=N)(=O)c1cc2c(cc1F)CCN2C(=O)[C@@H]1Cc2ccc(-c3ccccn3)cc2C1 [Example 3, (S)-ethyl(5-fluoro-1-((R)-5-(pyridin-2-yl)-2,3-dihydro-1H-indene-2-carbonyl)indolin-6-yl)(imino)-λ^6-sulfanone]
52	218	CCC[S@](=N)(=O)c1cc2c(cc1F)CCN2C(=O)[C@@H]1Cc2ccc(-c3ccccn3)cc2C1 [Example 9, (S)-(5-fluoro-1-((R)-5-(pyridin-2-yl)-2,3-dihydro-1H-indene-2-carbonyl)indolin-6-yl)(imino)(propyl)-λ^6-sulfanone]
35	98	CCC[S@@](=N)(=O)c1cc2c(cc1F)CCN2C(=O)[C@H]1Cc2cc(-c3ccccn3)ccc2O1 [Example 12, (R)-(5-fluoro-1-((R)-5-(pyridin-2-yl)-2,3-dihydrobenzofuran-2-carbonyl)indolin-6-yl)(imino)(propyl)-λ^6-sulfanone]
31	55	COCCS(=N)(=O)c1cc2c(cc1F)CCN2C(=O)[C@@H]1Cc2ccc(-c3ccccn3)cc2C1 (stereo partly drawn) [Example 13, (5-fluoro-1-((R)-5-(pyridin-2-yl)-2,3-dihydro-1H-indene-2-carbonyl)indolin-6-yl)(imino)(2-methoxyethyl)-16-sulfanone]
25	54	COCC[S@@](=N)(=O)c1cc2c(cc1F)CCN2C(=O)[C@@H]1Cc2ccc(-c3ccccn3)cc2C1 [Example 14, (R)-(5-fluoro-1-((R)-5-(pyridin-2-yl)-2,3-dihydro-1H-indene-2-carbonyl)indolin-6-yl)(imino)(2-methoxyethyl)-λ^6-sulfanone]
42	87	COCC[S@](=N)(=O)c1cc2c(cc1F)CCN2C(=O)[C@@H]1Cc2ccc(-c3ccccn3)cc2C1 [Example 15, (S)-(5-fluoro-1-((R)-5-(pyridin-2-yl)-2,3-dihydro-1H-indene-2-carbonyl)indolin-6-yl)(imino)(2-methoxyethyl)-λ6-sulfanone]
39	59	COCC[S@@](=N)(=O)c1cc2c(cc1F)CCN2C(=O)[C@H]1Cc2cc(-c3ccccn3)ccc2O1 [Example 17, (R)-(5-fluoro-1-((R)-5-(pyridin-2-yl)-2,3-dihydrobenzofuran-2-carbonyl)indolin-6-yl)(imino)(2-methoxyethyl)-λ^6-sulfanone]
92	208	COCC[S@](=N)(=O)c1cc2c(cc1F)CCN2C(=O)[C@H]1Cc2cc(-c3ccccn3)ccc2O1 [Example 18, (S)-(5-fluoro-1-((R)-5-(pyridin-2-yl)-2,3-dihydrobenzofuran-2-carbonyl)indolin-6-yl)(imino)(2-methoxyethyl)-λ^6-sulfanone]
155	522	CN=[S@](C)(=O)c1cc2c(cc1F)CCN2C(=O)[C@@H]1Cc2ccc(-c3ccccn3)cc2C1 [Example 23, (R)-(5-fluoro-1-((R)-5-(pyridin-2-yl)-2,3-dihydro-1H-indene-2-carbonyl)indolin-6-yl)(methyl)(methylimino)-λ^6-sulfanone]
55	113	CC[S@](=N)(=O)c1cc2c(cc1F)C[C@@H](C)N2C(=O)[C@@H]1Cc2ccc(-c3ccccn3)cc2C1 [Example 27, (S)-ethyl((R)-5-fluoro-2-methyl-1-((R)-5-(pyridin-2-yl)-2,3-dihydro-1H-indene-2-carbonyl)indolin-6-yl)(imino)-λ^6-sulfanone]
